{"source": "patent US8541579B2", "about": "“Substituted diketopiperazines as oxytocin antagonists” (Glaxo Group Limited, priority 2001, dated 2013)", "system": "rats", "assay": "Administration to rats p.o. for 4 days, toxicological effects", "type": "in vivo", "details": "doses of up to 300 mg/kg p.o for 4 days", "text": "The compounds of the invention are essentially non toxic at therapeutically active doses."}
{"smiles": "CC(C)C[C@@H]1C(=O)N[C@H](C2Cc3ccccc3C2)C(=O)N1[C@@H](C(=O)N(C)C)c1ccc(F)cc1F", "note": "[Example 10, (2R)-2-(2,4-difluorophenyl)-2-[(3R,6R)-3-(2,3-dihydro-1H-inden-2-yl)-6-isobutyl-2,5-dioxopiperazin-1-yl]-N,N-dimethylethanamide]", "values": [{"measurement": "adverse toxicological effects", "value": "no adverse toxicological effects were observed"}]}
